“Also recorded” adds a separate entry of the source. Residues, ends and D or L forms follow the SMILES beside them. *: point of attachment. Myristoyl = CCCCCCCCCCCCCC(=O)*
Experiments:
P. aeruginosa GIM 1.551 = format: cell-based, Pseudomonas aeruginosa; details: GIM 1.551, 1 h
Protocol: The effects of abiotic factors on the antibacterial activity of Myr-36PW were investigated by MIC assay (Xi et al., [2013]; Zhong et al., [2019]). S. aureus ATCC 25923 and P. aeruginosa GIM 1.551 overnight cultures were diluted to 1 × 10^6 CFU/mL, and the MICs of peptides in MHB with different concentration of physiological salts (150 mM NaCL, 2 mM CaCL2) were determined. And after the peptides incubated in 10% mice serum for 1 h at 37°C, MICs of peptides against S. aureus ATCC 25923 and P. aeruginosa GIM 1.551 were determined. The MICs in MHB in the absence of physiological salts and serum were used as the control group.
Salt and serum stability in vitro were indicated by MIC assay. The concentrations of NaCl and CaCl2 were physiological concentration. 10% mice serum was inactivated by heat treatment for 15 min at 60 ℃。The control group was measured in the absence of physiological salts or serum in MHB.

S. aureus ATCC 25923 [1] = assay: Inhibition zone assay (disk diffusion); format: cell-based, Staphylococcus aureus; set-up: key: +, means the peptide has antibacterial activity; details: disk 10 μg peptide, 18 h at 37°C, * P < 0.05, ** P < 0.01 vs PMAP-36PW
Protocol: (§1) The inhibition zone assay was performed through the disk diffusion to evaluate the antimicrobial activity of Myr-36PW in vitro (Dunne et al., [2017]). The four above-mentioned bacterial strains were used as experimental strains, with L. monocytogenes CICC 21634 cultured in BHI medium, and P. aeruginosa GIM 1.551 cultured in TSB medium. The bacterial cells were cultured for 12 h at 37°C in the appropriate medium, and the bacterial cell suspension was spread on LB agar. The disks containing 10 μg of peptides (1 μg/μL) were attached to the solid medium and incubated at 37°C for 18 h. Finally the diameter of the inhibition zone was measured.

S. typhimurium SL 1344 = assay: Inhibition zone assay (disk diffusion); format: cell-based, Salmonella typhimurium; set-up: key: +, means the peptide has antibacterial activity; details: disk 10 μg peptide, 18 h at 37°C, * P < 0.05, ** P < 0.01 vs PMAP-36PW
Protocol: as §1

S. aureus ATCC 25923 [2] = assay: Pneumonia (lung infection) model; format: in vivo, BALB/c mice; details: intranasal 40 μL, 1 μg/μL, once a day for 3 days; for Pathological scores of the lung sections: n = 5; for Bacterial CFU in lung homogenate: reduced vs PBS group P < 0.01, n = 5
Protocol: A pneumonia model in vivo was established as previously reported, with minor modification (Cortés et al., [2002]; Aoki et al., [2009]; Shi et al., [2018]). A total of 120 mice were randomly divided into two experimental models, one was intranasal inoculation of S. aureus ATCC 25923 (8.3 × 10^9 CFU/mL, 50 μL), and the other was intranasal inoculation of P. aeruginosa GIM 1.551 (4.5 × 10^10 CFU/mL, 50 μL). In the S. aureus ATCC 25923 model, 60 mice were divided into the following six groups of 10 mice each: no infection and treatment was used as a blank control, those with intranasal administration of PBS (40 μL) as the negative control group, those administered with benzylpenicillin potassium (40 μL, 1 μg/μL) as the positive control group, and the remaining three corresponded to Myr-36PW (40 μL, 1 μg/μL), PMAP-36PW (40 μL, 1 μg/μL), and PMAP-36 groups (40 μL, 1 μg/μL). The procedure for P. aeruginosa GIM 1.551 model is the same as for S. aureus ATCC 25923 model, except for the use of ampicillin sodium as the positive control. After 4 h post-inoculation, treatment was initiated, once a day for 3 days. The mice were sacrificed 24 h after the treatment. Changes in the appearance of lung tissues were observed, and lung tissues were removed aseptically from the mice. Half of the removed lung tissues were gently fixed in buffered formaldehyde solution for histopathological assessment by hematoxylin and eosin (H&E) staining. Pathological changes were scored to provide individual therapeutic status as described previously (Lei et al., [2018]). The remaining lung tissues were added with 1 mL of PBS, homogenized, and serially diluted. Bacterial CFU counts were determined.
Figure 8 Therapeutic effect for pneumonia by Myr-36PW in vivo. Mice were injected with S. aureus ATCC 25923 or P. aeruginosa GIM 1.551 to form pneumonia, and lungs (n = 5) in each group were collected on day 4 after intranasal bacterial inoculation. (A) Morphological changes of lung tissues. (B) Representative histopathological images of processed lung section with hematoxylin and eosin (H&E) staining. Images are presented at a magnification of 20×. a: inflammatory cell infiltration. b: the alveolar wall is thickened. c: alveolar wall congestion or alveolar hemorrhage. (C,D) Pathological scores of the lung sections. Scoring standard: 1 indicated no pathology, 2 indicated local pulmonary congestion and inflammatory cell infiltration, 3 indicated pulmonary congestion and a large number of inflammatory cell infiltration, affecting <20% of the section, 4 indicated pulmonary congestion and a large number of inflammatory cell infiltration, affecting 20–50% of the section, and 5 indicated pulmonary congestion and a large number of inflammatory cell infiltration, affecting >50% of the section. (E,F) Bacterial CFU in lung homogenate. BP is benzylpenicillin potassium, AS is ampicillin sodium. Data represent the mean ± SD of five individual experiments.

[3] = tested on: S. aureus ATCC 25923, S. typhimurium SL 1344, and P. aeruginosa GIM 1.551; assay: Biofilm inhibition assay (crystal violet); format: cell-based; details: 0.25–128 μg/mL, 24 h at 37°C, crystal violet OD 620 nm; n = 5
Protocol: The biofilm-inhibiting ability of Myr-36PW was evaluated against S. aureus ATCC 25923, S. typhimurium SL 1344, and P. aeruginosa GIM 1.551 by using crystal violet dye (Chen et al., [2018]; de Breij et al., [2018]). Overnight cultured strains in TSB medium were diluted to 1 × 10^6 CFU/mL, 100 μL of bacterial suspension with 100 μL of different concentration of peptides (0.25–128 μg/mL) was added into a 96-well plate. Bacterial suspension without peptides was used the negative control. After incubation for 24 h at 37°C, the supernatant weas discarded, and the biofilm was gently washed with PBS, fixed in methanol for 20 min, stained with 0.1% (w/v) crystal violet for 10 min, and finally removed. After washing with PBS, 95% ethanol was added into wells, and the optical density (OD) was measured at 620 nm.
Figure 6 Biofilm inhibition and eradication of Myr-36PW. (A–C) Inhibition of biofilm formation by Myr-36PW. (D) Eradication of preformed biofilm by Myr-36PW. (E) Killing effect of Myr-36PW against biofilm bacteria. Inhibition rate % = [1 – OD620 nm(peptides)/OD620 nm(bacteria)] × 100%. Biofilm mass % = OD620 nm(peptides)/OD620 nm(control) × 100%. The control group was bacterial culture without peptides. Data represent the mean ± SD (n = 5).

| Compound | MICs, CaCl2 (P. aeruginosa GIM 1.551) [µg/mL] | MICs, Control (P. aeruginosa GIM 1.551) [µg/mL] | MICs, NaCl (P. aeruginosa GIM 1.551) [µg/mL] | MICs, Serum (P. aeruginosa GIM 1.551) [µg/mL] | In vitro antibacterial activity (disk diffusion) (S. aureus ATCC 25923 [1]) | In vitro antibacterial activity (disk diffusion) (S. typhimurium SL 1344) | Lung histopathology (H&E) (S. aureus ATCC 25923 [2]) | Pathological scores of the lung sections (S. aureus ATCC 25923 [2]) | Bacterial CFU in lung homogenate (S. aureus ATCC 25923 [2]) | Inhibition of biofilm formation [3] |
| --- | --- | --- | --- | --- | --- | --- | --- | --- | --- | --- |
| CCCCCCCCCCCCCC(=O)NCC(=O)NCC(=O)N[C@@H](CCCNC(=N)N)C(=O)N[C@@H](Cc1ccccc1)C(=O)N[C@@H](CCCNC(=N)N)C(=O)N[C@@H](CCCNC(=N)N)C(=O)N[C@@H](CC(C)C)C(=O)N[C@@H](CCCNC(=N)N)C(=O)N[C@@H](CCCCN)C(=O)N[C@@H](CCCCN)C(=O)N[C@H](C(=O)N[C@@H](CCCNC(=N)N)C(=O)N[C@@H](CCCCN)C(=O)N[C@@H](CCCNC(=N)N)C(=O)N[C@@H](CC(C)C)C(=O)N[C@@H](CCCCN)C(=O)N[C@@H](CCCCN)C(=O)N[C@H](C(=O)NCC(=O)N[C@@H](CCCCN)C(=O)N[C@H](C(=O)N[C@@H](CC(C)C)C(=O)N[C@@H](CCCCN)C(=O)N[C@@H](Cc1c[nH]c2ccccc12)C(=O)N[C@H](C(=O)N[C@@H](Cc1c[nH]c2ccccc12)C(=O)N[C@@H](Cc1c[nH]c2ccccc12)C(=O)N[C@H](C(=O)N[C@H](C(=O)NCC(=O)N[C@@H](CO)C(=O)N[C@H](C(=O)N1CCC[C@H]1C(=O)N[C@@H](CC(C)C)C(=O)NCC(=O)N[C@@H](CS)C(=O)NCC(=O)O)[C@@H](C)CC)C(C)C)[C@@H](C)CC)[C@@H](C)CC)C(C)C)[C@@H](C)CC)[C@@H](C)O [Myr-36PW] (Myristoyl-GGRFRRLRKKTRKRLKKIGKVLKWIWWIVGSIPLGCG-OH; C-terminus assumed) | 0.5 | 0.25 | 0.25 | 0.5 | +** | +* | a complete alveolar structure, reduced blood stasis, and large reduction in inflammatory cells | lower scores than PMAP-36PW group (P < 0.05) | reduced; also recorded: lower than that for PMAP-36PW group (P < 0.05) | biofilm inhibition against the tested bacteria in a concentration-dependent manner |
| CC1(C)S[C@@H]2[C@H](NC(=O)Cc3ccccc3)C(=O)N2[C@H]1C(=O)O [Benzylpenicillin potassium] |  |  |  |  |  |  | a complete alveolar structure, reduced blood stasis, and large reduction in inflammatory cells | lower scores than PMAP-36PW group (P < 0.05) | reduced; also recorded: lower than that for PMAP-36PW group (P < 0.05) |  |

Source: publication PMC7481357, “N-terminal Myristoylation Enhanced the Antimicrobial Activity of Antimicrobial Peptide PMAP-36PW” (Frontiers in Cellular and Infection Microbiology, 2020)
